What was measured:
P2X7 receptor = target: T1, P2X7 receptor (Homo sapiens, UniProt Q99572); test: P2X7 receptor antagonist test: bbATP-induced ethidium bromide fluorescence in THP-1 cells; assay type: cell-based; settings: negative logarithm of the concentration of test compound necessary to reduce the bbATP agonist activity by 50%, 10^-5M bbATP solution, 37° C. for one hour
T1 construct: 200 μl of a suspension of THP-1 cells; endogenous in cells; host or cells: THP-1 cells
T1 sequence (Q99572 1-595): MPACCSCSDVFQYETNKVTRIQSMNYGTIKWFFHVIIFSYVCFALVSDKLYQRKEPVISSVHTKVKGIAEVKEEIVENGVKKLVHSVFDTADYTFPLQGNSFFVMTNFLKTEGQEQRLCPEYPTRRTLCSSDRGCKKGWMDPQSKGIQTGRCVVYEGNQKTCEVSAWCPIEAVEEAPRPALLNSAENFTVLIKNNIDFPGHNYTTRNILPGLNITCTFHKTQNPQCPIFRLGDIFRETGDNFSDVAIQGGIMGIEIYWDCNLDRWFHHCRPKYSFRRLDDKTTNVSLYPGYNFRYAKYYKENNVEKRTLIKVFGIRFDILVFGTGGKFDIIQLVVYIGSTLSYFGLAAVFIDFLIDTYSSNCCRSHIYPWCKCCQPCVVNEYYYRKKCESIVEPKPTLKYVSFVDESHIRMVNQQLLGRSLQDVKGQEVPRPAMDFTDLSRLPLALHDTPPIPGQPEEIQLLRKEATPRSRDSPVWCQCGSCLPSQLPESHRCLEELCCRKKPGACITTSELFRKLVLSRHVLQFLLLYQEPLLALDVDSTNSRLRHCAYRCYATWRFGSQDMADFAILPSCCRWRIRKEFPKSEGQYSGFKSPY
From the text: Certain compounds such as benzoylbenzoyl adenosine triphosphate (bbATP) are known to be agonists of the P2X7 receptor, effecting the formation of pores in the plasma membrane (Drug Development Research (1996), 37(3), p. 126). Consequently, when the receptor is activated using bbATP in the presence of ethidium bromide (a fluorescent DNA probe), an increase in the fluorescence of intracellular DNA-bound ethidium bromide is observed. The increase in fluorescence can be used as a measure of P2X7 receptor activation and therefore to quantif the effect of a compound on the P2X7 receptor.
In this manner, each of the title compounds of the Examples was tested for antagonist activity at the P2X7 receptor. Thus, the test was performed in 96-well flat bottomed microtitre plates, the wells being filled with 250 μl of test solution comprising 200 μl of a suspension of THP-1 cells (2.5×10^6 cells/ml) containing 10^−4M ethidium bromide, 25 μl of a high potassium buffer solution containing 10^−5M bbATP, and 25 μl of the high potassium buffer solution containing concentrations of test compound typically from 30 μM-0.001 μM. The plate was covered with a plastics sheet and incubated at 37° C. for one hour. The plate was then read in a Perkin-Elmer fluorescent plate reader, excitation 520 nm, emission 595 nm, slit widths: Ex 15 nm, Em 20 nm. […]

Row | melting point | SMILES | IC50 (P2X7 receptor) [µM]
1 | 177 to 178 °C | Cc1ccc(-c2ccc(Cl)c(C(=O)O)n2)cc1C(=O)NCC1CCCCCC1 [Example 18, 3-Chloro-6-[3-[[(cycloheptylmethyl)amino]carbonyl]-4-methylphenyl]-2-pyridinecarboxylic acid] | 
2 | 176 to 179 °C | O=C(NCC1CCCCCC1)c1cc(-c2ncc(Cl)cc2C(=O)O)ccc1Cl [Example 20, 5-Chloro-2-[4-chloro-3-[[(cycloheptylmethyl)amino]carbonyl]phenyl]-3-pyridinecarboxylic acid] | 
3 | 193 to 195 °C | O=C(NC[C@@H]1CCCCC[C@@H]1O)c1cc(-c2ccccc2C(=O)O)ccc1Cl (relative stereo) [Example 8, 4′-Chloro-3′-[[[[cis-2-hydroxycycloheptyl]methyl]amino]carbonyl]-[1,1′-biphenyl]-2-carboxylic acid] | 
4 | 201 to 203 °C | O=C(NCC1CCCCCC1)c1cc(-c2ccccc2C(=O)O)ccc1Cl [Example 6, 4′-Chloro-3′-[[(cycloheptylmethyl)amino]carbonyl]-[1,1′-biphenyl]-2-carboxylic acid] | 
5 | 139 to 141 °C | C[C@@H](NC(=O)c1cc(-c2ccccc2C(=O)O)ccc1Cl)C1CCCCC1 [Example 12, 4′-Chloro-3′-[[[(1R)-1-cyclohexylethyl]amino]carbonyl]-[1,1′-biphenyl]-2-carboxylic acid] | 
6 | 191 to 193 °C | O=C(NCCC1CCCCC1)c1cc(-c2ccccc2C(=O)O)ccc1Cl [Example 9, 4′-Chloro-3′-[[(2-cyclohexylethyl)amino]carbonyl]-[1,1′-biphenyl]-2-carboxylic acid] | 
7 | 212 to 214 °C | O=C(NCC1CCCCC1)c1cc(-c2ccccc2C(=O)O)ccc1Cl [Example 3, 4′-Chloro-3′-[[(cyclohexylmethyl)amino]carbonyl]-[1,1′-biphenyl]-2-carboxylic acid] | 
8 | 180 to 183 °C | CC1(CNC(=O)c2cc(-c3ccccc3C(=O)O)ccc2Cl)CCCCCC1 [Example 13, 4′-Chloro-3′-[[[(1-methylcycloheptyl)methyl]amino]carbonyl]-[1,1′-biphenyl]-2-carboxylic acid] | 
9 | 188 to 189 °C | Cc1ccc(-c2ccccc2C(=O)O)cc1C(=O)NCC1CCCCCC1 [Example 16, 3′-[[(Cycloheptylmethyl)amino]carbonyl]-4′-methyl-[1,1′-biphenyl]-2-carboxylic acid] | 
10 | 166 to 168 °C | O=C(NCC1CCCCCC1)c1cc(-c2cccnc2C(=O)O)ccc1Cl [Example 10, 3-[4-Chloro-3-[[(cycloheptylmethyl)amino]carbonyl]phenyl]-2-pyridinecarboxylic acid] | 

Continued, compound first:

Row | SMILES | melting point | IC50 (P2X7 receptor) [µM]
11 | O=C(NCC1(O)CCCCCC1)c1cc(-c2ncc(Cl)cc2C(=O)O)ccc1Cl [Example 21, 5-Chloro-2-[4-chloro-3-[[[(1-hydroxycycloheptyl)methyl]amino]carbonyl]phenyl]-3-pyridinecarboxylic acid] | 201 to 204 °C | 
12 | O=C(NCC1(O)CCCCCC1)c1cc(-c2cccnc2N2CCC(C(=O)O)CC2)ccc1Cl [Example 27, 1-[3-[4-Chloro-3-[[[(1-hydroxycycloheptyl)methyl]amino]carbonyl]phenyl]-2-pyridinyl]-4-piperidinecarboxylic acid] | 117 to 119 °C | 
13 | CC1(C)[C@H]2CC[C@@H](CNC(=O)c3cc(-c4ccccc4C(=O)O)ccc3Cl)[C@@H]1C2 [Example 5, 4′-Chloro-3′-[[[[(1S,2R,5S)-6,6-dimethylbicyclo[3.1.1]hept-2-yl]methyl]amino]car-bonyl]-[1,1′-biphenyl]-2-carboxylic acid] | 170 to 172 °C | 
14 | O=C(NCCC1CCCCC1)c1cc(-c2ccc(Cl)c(C(=O)O)n2)ccc1Cl [Example 22, 3-Chloro-6-[4-chloro-3-[[(2-cyclohexylethyl)amino]carbonyl]phenyl]-2-pyridinecarboxylic acid] | 189 to 190 °C | 
15 | O=C(NCC1CCCCCC1)c1cc(-c2ccc(Cl)c(C(=O)O)n2)ccc1Cl [Example 23, 3-Chloro-6-[4-chloro-3-[[(cycloheptylmethyl)amino]carbonyl]phenyl]-2-pyridinecarboxylic acid] | 189 to 190 °C | 
16 | C[C@H](CNC(=O)c1cc(-c2ccccc2C(=O)O)ccc1Cl)c1ccccc1 [Example 4, 4′-Chloro-3′-[[[(2S)-2-phenylpropyl]amino]carbonyl]-[1,1′-biphenyl]-2-carboxylic acid] | 160 to 162 °C | 
17 | O=C(NCCC1CCCCC1)c1cc(-c2cccnc2C(=O)O)ccc1Cl [Example 11, 3-[4-Chloro-3-[[(2-cyclohexylethyl)amino]carbonyl]phenyl]-2-pyridinecarboxylic acid] | 104 to 107 °C | 
18 | O=C(NCCc1ccccc1Cl)c1cc(-c2ccccc2C(=O)O)ccc1Cl [Example 1, 4′-Chloro-3′-[[[2-(2-chlorophenyl)ethyl]amino]carbonyl]-[1,1′-biphenyl]-2-carboxylic acid] | 136 to 140 °C (dec.) | 
19 | O=C(NCC1CCCCCC1)c1cc(-c2cccnc2N2CCC(C(=O)O)CC2)ccc1Cl [Example 26, 1-[3-[4-Chloro-3-[[(cycloheptylmethyl)amino]carbonyl]phenyl]-2-pyridinyl]-4-piperidinecarboxylic acid] |  | 0.1
20 | O=C(NCC1(CO)CCCCCC1)c1cc(-c2ccccc2C(=O)O)ccc1Cl [Example 14, 4′-Chloro-3′-[[[[1-(hydroxymethyl)cycloheptyl]methyl]amino]carbonyl]-[1,1′-biphenyl]-2-carboxylic acid] | 175 to 177 °C | 
21 | O=C(NCCC1CCCCC1)c1cc(-c2ncc(Cl)cc2C(=O)O)ccc1Cl [Example 19, 5-Chloro-2-[4-chloro-3-[[(2-cyclohexylethyl)amino]carbonyl]phenyl]-3-pyridinecarboxylic acid] | 208 to 211 °C | 
22 | O=C(NCC1(O)CCCCCC1)c1cc(-c2ccc(Cl)c(C(=O)O)n2)ccc1Cl [Example 24, 3-Chloro-6-[4-chloro-3-[[[(1-hydroxycycloheptyl)methyl]amino]carbonyl]phenyl]-2-pyridinecarboxylic acid] | 146 to 149 °C | 
23 | O=C(NCC1(O)CCCCC1)c1cc(-c2ccccc2C(=O)O)ccc1Cl [Example 7, 4′-Chloro-3′-[[[(1-hydroxycyclohexyl)methyl]amino]carbonyl]-[1,1′-biphenyl]-2-carboxylic acid] | 202 to 204 °C | 
24 | O=C(NCCC1CCCCC1)c1cc(-c2cccnc2N2CCC(C(=O)O)CC2)ccc1Cl [Example 25, 1-[3-[4-Chloro-3-[[(2-cyclohexylethyl)amino]carbonyl]phenyl]-2-pyridinyl]-4-piperidinecarboxylic acid] | 116 to 120 °C | 
25 | O=C(NCC1(O)CCCCCC1)c1cc(-c2ccccc2C(=O)O)ccc1Cl [Example 2, 4′-Chloro-3′-[[[(1-hydroxycycloheptyl)methyl]amino]carbonyl]-[1,1′-biphenyl]-2-carboxylic acid] |  | 0.0631

Reference: US20080146612A1, “Novel Biaromatic Compounds, Inhibitors of the P2X7-Receptor” (ASTRAZENECA AB, priority 2005, published 2008)
